Measurements from patent US11795152B2, “Crystal form of tafamidis and preparation method therefor and use thereof” (CRYSTAL PHARMACEUTICAL (SUZHOU) CO., LTD., priority 2019, dated 2023).
Entries after “also recorded” stand apart in the source; their conditions may differ. Each block holds one molecule with its values, some of them ahead of it.

Columns and labels:
Format in all cases: physicochemical
[1] = Stability of drug substance on storage (XRPD, HPLC purity); settings: for chemical purity during storage: drug substance
Description: Crystalline form and chemical impurity were checked by XRPD and HPLC, respectively.
Crystalline form and purity were checked by XRPD and HPLC, respectively.

[2] = Hygroscopicity by dynamic vapor sorption (DVS); settings: 80% RH; for Weight gain: 25° C., DVS; for hygroscopicity: pharmacopoeia definition
Procedure: Dynamic Vapor Sorption (DVS) is measured via a SMS (Surface Measurement Systems Ltd.) intrinsic DVS instrument. Its control software is DVS-Intrinsic control software. Typical parameters for DVS tests are as follows:
Gas and flow rate: N2, 200 mL/min
RH range: 0% RH to 95% RH
The weight gains at each relative humidity were recorded in a cycle of 0-95%-0 RH. The XRPD patterns were collected before and after the DVS test and depicted in FIG. 11.
Description and definition of hygroscopicity (general notice 9103 drug hygroscopicity test guidelines in 2015 edition of Chinese Pharmacopoeia, test at 25° C.+/−1° C., 80% RH. The definition of hygroscopicity in the 9th European Pharmacopoeia 5.11 is in consistent with the Chinese Pharmacopoeia.). • deliquescent: sufficient water is absorbed to form a solution. • very hygroscopic: increase in mass is equal to or greater than 15 percent. • hygroscopic: increase in mass is less than 15 percent and equal to or greater than 2 percent. • slightly hygroscopic: increase in mass is less than 2 percent and equal to or greater than 0.2 percent. • non hygroscopic or almost non hygroscopic: Increase in mass is less than 0.2%.
The weight gains at each relative humidity were recorded in a cycle of 0-95%-0RH. The XRPD patterns were collected before and after the DVS test and depicted in FIG. 22. […] Form CSVI is slightly hygroscopic.
The weight gains at each relative humidity were recorded in a cycle of 0-95%-0RH. The XRPD patterns were collected before and after the DVS test and depicted in FIG. 31.

[3] = Dissolution profile of tablets in pH6.8 PBS+1% Tween 80; settings: tablet 61 mg, paddle 75 rpm, 37° C.
Procedure: (§1) The cumulative dissolution was measured at different time in pH6.8 PBS+1% Tween 80 and pH6.8 PBS+3% Tween 80. The dissolution results are presented in Table 24 (FIG. 23) and Table 25 (FIG. 24).
The cumulative dissolution was measured at different time in pH6.8 PBS+1% Tween 80.

[4] = Dissolution profile of tablets in pH6.8 PBS+3% Tween 80; settings: tablet 61 mg, paddle 75 rpm, 37° C.
Procedure: as §1

[5] = Grinding stability (XRPD before and after grinding); settings: manually ground in the mortar for five minutes
Description: A certain amount of Form CSV and WO2016038500 Form 1 were manually ground in the mortar for five minutes.

[6] = Compressibility (manual tablet press, tensile strength); settings: 80 mg, φ6 mm round tooling, 10 KN; for Hardness: 24 hours recovery; for Tensile strength: T=2H/πDL*9.8
Procedure: An ENERPAC manual tablet press was used for tableting. […] Diameter (D) and thickness (L) were tested with a caliper. Hardness (H) was tested with an intelligent tablet hardness tester. Tensile strength of the powder was calculated with the following formula: T=2H/πDL*9.8. Under a certain force, the greater the tensile strength, the better the compressibility.
Diameter (D) and thickness (L) were tested with a caliper. Hardness (H) was tested with an intelligent tablet hardness tester. Tensile strength of the powder was calculated with the following formula: T=2H/πDL*9.8. Under a certain force, the greater the tensile strength, the better the compressibility.

[7] = Dissolution profile of capsules in pH6.8 PBS; settings: capsule 61 mg, paddle 50 rpm, 37° C.
Procedure: The cumulative dissolution was measured at different time in pH6.8 PBS.

[8] = Adhesiveness (material sticking to the punch); settings: 30 mg, φ8 mm round tooling, 10 KN held for 30 s
Procedure: The punch was weighed and amount of material sticking to the punch was calculated. The compression was repeated twice and the cumulative amount, maximum amount and average amount of material sticking to the punch during the compression were recorded.

[9] = Stability of Form CSV in drug product; settings: for Purity % / Solid Form: drug product
Description: X-ray powder diffraction patterns of drug product stability study in the present disclosure were acquired by a Bruker D8 Discover X-ray powder diffractometer. The parameters of the X-ray powder diffraction method of the present disclosure are as follows:
The XRPD patterns were collected before and after the formulation process.

[10] = Stability of crystalline form of Compound I in WO2019175263 in drug product formulation process; settings: formulation of Table 34, stirring at room temperature
Description: The crystalline form of Compound I in WO2019175263 was made into drug products according to the formulation and preparation process in Table 34 and Table 35. The XRPD patterns were collected before and after the formulation process. […] Form change occurred during stirring at room temperature.

[11] = 40° C./75% RH, Sealed, 6 months
[12] = 60° C./75% RH, Sealed, 2 months
[13] = 40° C./75% RH and 60° C./75% RH
[14] = double aluminum blister, 25° C./60% RH, 3 months
[15] = double aluminum blister, 40° C./75% RH, 3 months

- Purity ([1]; 25° C./60% RH, Open, 6 months): 99.96%
- Solid Form ([1]; 25° C./60% RH, Open, 6 months): Form CSVI
- Purity ([1]; 40° C./75% RH, Open, 6 months): 99.95%
- Solid Form ([1]; 40° C./75% RH, Open, 6 months): Form CSVI
- Purity [1, 11]: 99.95%
- Solid Form [1, 11]: Form CSVI
- Purity [1, 12]: 99.95%
- Solid Form [1, 12]: Form CSVI
- Purity ([1]; Initial): 99.95%
- Solid Form ([1]; Initial): Form CSVI
- chemical purity during storage ([1]; 25° C./60% RH): above 99.9%
- chemical purity during storage [1, 13]: above 99.9%
- Weight gain [2]: 0.21%
- Cumulative drug release in pH 6.8 PBS + 1% Tween 80 (%) ([3]; 0 min): 0.0%
- Cumulative drug release in pH 6.8 PBS + 1% Tween 80 (%) ([3]; 5 min): 19.1%
- Cumulative drug release in pH 6.8 PBS + 1% Tween 80 (%) ([3]; 10 min): 28.3%
- Cumulative drug release in pH 6.8 PBS + 1% Tween 80 (%) ([3]; 15 min): 34.7%
- Cumulative drug release in pH 6.8 PBS + 1% Tween 80 (%) ([3]; 20 min): 39.8%
- Cumulative drug release in pH 6.8 PBS + 1% Tween 80 (%) ([3]; 30 min): 47.4%
- Cumulative drug release in pH 6.8 PBS + 1% Tween 80 (%) ([3]; 45 min): 56.0%
- Cumulative drug release in pH 6.8 PBS + 1% Tween 80 (%) ([3]; 60 min): 62.1%
- Cumulative drug release in pH 6.8 PBS + 1% Tween 80 (%) ([3]; 90 min): 70.4%
- Cumulative drug release in pH 6.8 PBS + 1% Tween 80 (%) ([3]; 120 min): 75.7%
- Cumulative drug release in pH 6.8 PBS + 1% Tween 80 (%) ([3]; 150 min): 80.7%
- Cumulative drug release in pH 6.8 PBS + 3% Tween 80 (%) ([4]; 0 min): 0.0%
- Cumulative drug release in pH 6.8 PBS + 3% Tween 80 (%) ([4]; 5 min): 27.0%
- Cumulative drug release in pH 6.8 PBS + 3% Tween 80 (%) ([4]; 10 min): 38.2%
- Cumulative drug release in pH 6.8 PBS + 3% Tween 80 (%) ([4]; 15 min): 46.4%
- Cumulative drug release in pH 6.8 PBS + 3% Tween 80 (%) ([4]; 20 min): 51.9%
- Cumulative drug release in pH 6.8 PBS + 3% Tween 80 (%) ([4]; 30 min): 60.4%
- Cumulative drug release in pH 6.8 PBS + 3% Tween 80 (%) ([4]; 45 min): 68.5%
- Cumulative drug release in pH 6.8 PBS + 3% Tween 80 (%) ([4]; 60 min): 73.8%
- Cumulative drug release in pH 6.8 PBS + 3% Tween 80 (%) ([4]; 90 min): 79.2%
- Cumulative drug release in pH 6.8 PBS + 3% Tween 80 (%) ([4]; 120 min): 81.9%
SMILES: O=C(O)CCCC(=O)O.O=C(O)c1ccc2nc(-c3cc(Cl)cc(Cl)c3)oc2c1.O=C(O)c1ccc2nc(-c3cc(Cl)cc(Cl)c3)oc2c1 [Form CSVI]
- hygroscopicity [2]: slightly hygroscopic (increase in mass is less than 2 percent and equal to or greater than 0.2 percent)

- crystallinity after grinding [5]: decreases
- Hardness [6]: 2.32 kgf
- Tensile strength [6]: 1.78 MPa
- Cumulative drug release (%) ([7]; 0 min): 0.0%
- Cumulative drug release (%) ([7]; 5 min): 14.0%
- Cumulative drug release (%) ([7]; 10 min): 27.3%
- Cumulative drug release (%) ([7]; 15 min): 29.1%
- Cumulative drug release (%) ([7]; 20 min): 28.1%
- Cumulative drug release (%) ([7]; 30 min): 27.6%
- Cumulative drug release (%) ([7]; 45 min): 26.8%
- Cumulative drug release (%) ([7]; 60 min): 21.8%
- Cumulative drug release in pH 6.8 PBS + 1% Tween 80 (%) ([3]; 0 min): 0.0%
- Cumulative drug release in pH 6.8 PBS + 1% Tween 80 (%) ([3]; 5 min): 4.0%
- Cumulative drug release in pH 6.8 PBS + 1% Tween 80 (%) ([3]; 10 min): 10.4%
- Cumulative drug release in pH 6.8 PBS + 1% Tween 80 (%) ([3]; 15 min): 15.6%
- Cumulative drug release in pH 6.8 PBS + 1% Tween 80 (%) ([3]; 20 min): 19.5%
- Cumulative drug release in pH 6.8 PBS + 1% Tween 80 (%) ([3]; 30 min): 25.7%
- Cumulative drug release in pH 6.8 PBS + 1% Tween 80 (%) ([3]; 45 min): 33.0%
- Cumulative drug release in pH 6.8 PBS + 1% Tween 80 (%) ([3]; 60 min): 38.4%
- Cumulative drug release in pH 6.8 PBS + 1% Tween 80 (%) ([3]; 90 min): 46.8%
- Cumulative drug release in pH 6.8 PBS + 1% Tween 80 (%) ([3]; 120 min): 53.3%
- Cumulative drug release in pH 6.8 PBS + 1% Tween 80 (%) ([3]; 150 min): 61.4%
- Cumulative drug release in pH 6.8 PBS + 3% Tween 80 (%) ([4]; 0 min): 0.0%
- Cumulative drug release in pH 6.8 PBS + 3% Tween 80 (%) ([4]; 5 min): 22.7%
- Cumulative drug release in pH 6.8 PBS + 3% Tween 80 (%) ([4]; 10 min): 33.1%
- Cumulative drug release in pH 6.8 PBS + 3% Tween 80 (%) ([4]; 15 min): 39.7%
- Cumulative drug release in pH 6.8 PBS + 3% Tween 80 (%) ([4]; 20 min): 45.0%
- Cumulative drug release in pH 6.8 PBS + 3% Tween 80 (%) ([4]; 30 min): 52.5%
- Cumulative drug release in pH 6.8 PBS + 3% Tween 80 (%) ([4]; 45 min): 60.5%
- Cumulative drug release in pH 6.8 PBS + 3% Tween 80 (%) ([4]; 60 min): 65.9%
- Cumulative drug release in pH 6.8 PBS + 3% Tween 80 (%) ([4]; 90 min): 73.0%
- Cumulative drug release in pH 6.8 PBS + 3% Tween 80 (%) ([4]; 120 min): 77.2%
- Average amount (mg) of material sticking to the punch [8]: 0.265 mg
SMILES: O=C(O)c1ccc2nc(-c3cc(Cl)cc(Cl)c3)oc2c1 [WO2016038500 Form 1, reference compound]

- Purity ([1]; 25° C./60% RH, Open, 6 months): 99.96%
- Solid Form ([1]; 25° C./60% RH, Open, 6 months): Form CSV
- Purity ([1]; 40° C./75% RH, Open, 6 months): 99.96%
- Solid Form ([1]; 40° C./75% RH, Open, 6 months): Form CSV
- Purity [1, 11]: 99.96%
- Solid Form [1, 11]: Form CSV
- Purity ([1]; 60° C./75% RH, Open, 2 months): 99.94%
- Solid Form ([1]; 60° C./75% RH, Open, 2 months): Form CSV
- Purity [1, 12]: 99.94%
- Solid Form [1, 12]: Form CSV
- Purity ([1]; Initial): 99.96%
- Solid Form ([1]; Initial): Form CSV
- chemical purity during storage ([1]; 25° C./60% RH): above 99.9%
- chemical purity during storage [1, 13]: above 99.9%
- crystallinity after grinding [5]: keeps substantially unchanged
- Hardness [6]: 4.85 kgf
- Tensile strength [6]: 2.86 MPa
- Weight gain [2]: 0.09%
- Purity % ([9]; Initial): 99.84%
- Solid Form ([9]; Initial): Form CSV
- Purity % [9, 14]: 99.87%
- Solid Form [9, 14]: Form CSV
- Purity % [9, 15]: 99.86%
- Solid Form [9, 15]: Form CSV
- stability in the formulation process (XRPD before and after) ([9]; formulation of Table 10, process of Table 11): stable in the formulation process
- Cumulative drug release (%) ([7]; 0 min): 0.0%
- Cumulative drug release (%) ([7]; 5 min): 6.6%
- Cumulative drug release (%) ([7]; 10 min): 67.6%
- Cumulative drug release (%) ([7]; 15 min): 82.8%
- Cumulative drug release (%) ([7]; 20 min): 88.4%
- Cumulative drug release (%) ([7]; 30 min): 89.1%
- Cumulative drug release (%) ([7]; 45 min): 87.4%
- Cumulative drug release (%) ([7]; 60 min): 86.4%
SMILES: O=C(O)/C=C/C(=O)O.O=C(O)c1ccc2nc(-c3cc(Cl)cc(Cl)c3)oc2c1.O=C(O)c1ccc2nc(-c3cc(Cl)cc(Cl)c3)oc2c1 [Form CSV]
- hygroscopicity [2]: non hygroscopic or almost non-hygroscopic; also recorded: non-hygroscopic or almost non-hygroscopic

- stability in the formulation process (XRPD before and after) [10]: unstable in the formulation process
SMILES: O=C(O)c1ccc2nc(-c3cc(Cl)cc(Cl)c3)oc2c1
